In article PMC10837133, “Molecular basis of Spns2-facilitated sphingosine-1-phosphate transport” (Cell Research, 2023):

Columns and labels:
[1] = target: T1, Spns2 (Spinster homolog 2) (Homo sapiens, UniProt Q8IVW8); test: cell-based FTY720-P transport assay, WT vs mutants
T1 sequence (Q8IVW8 1-549): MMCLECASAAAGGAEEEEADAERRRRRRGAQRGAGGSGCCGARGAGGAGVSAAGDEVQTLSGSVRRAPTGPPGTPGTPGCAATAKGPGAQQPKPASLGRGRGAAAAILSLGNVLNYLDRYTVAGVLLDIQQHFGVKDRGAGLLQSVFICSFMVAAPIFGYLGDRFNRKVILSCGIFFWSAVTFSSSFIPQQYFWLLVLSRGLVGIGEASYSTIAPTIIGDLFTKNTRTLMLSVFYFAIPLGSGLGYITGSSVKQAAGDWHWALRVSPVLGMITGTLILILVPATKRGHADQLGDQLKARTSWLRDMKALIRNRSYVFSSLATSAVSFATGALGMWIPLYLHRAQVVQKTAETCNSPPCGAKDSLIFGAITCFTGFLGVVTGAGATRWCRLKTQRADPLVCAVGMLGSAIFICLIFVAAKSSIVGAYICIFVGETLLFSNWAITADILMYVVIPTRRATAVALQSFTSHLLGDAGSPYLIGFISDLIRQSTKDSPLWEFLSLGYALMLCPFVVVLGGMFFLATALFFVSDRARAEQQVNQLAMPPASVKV

[2] = target: T2, Spns2 (Spinster homolog 2) (Homo sapiens, UniProt Q8IVW8); test: cryo-EM structure ([…] Å); affinity selection mass spectrometry; cell-based S1P efflux assay; format: binding
T2 construct: Spns2fusion: PGS (Pyrococcus abyssi glycogen synthase) fused between F222 and T223 on intracellular loop 2
T2 sequence (Q8IVW8 1-222 limits assumed): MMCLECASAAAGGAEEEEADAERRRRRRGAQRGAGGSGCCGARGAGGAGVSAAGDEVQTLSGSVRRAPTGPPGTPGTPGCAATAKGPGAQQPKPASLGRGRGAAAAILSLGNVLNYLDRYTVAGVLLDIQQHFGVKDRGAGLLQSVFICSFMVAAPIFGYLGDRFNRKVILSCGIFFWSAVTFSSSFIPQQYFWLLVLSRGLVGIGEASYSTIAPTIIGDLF
T2 sequence (Q8IVW8 223-549 limits assumed): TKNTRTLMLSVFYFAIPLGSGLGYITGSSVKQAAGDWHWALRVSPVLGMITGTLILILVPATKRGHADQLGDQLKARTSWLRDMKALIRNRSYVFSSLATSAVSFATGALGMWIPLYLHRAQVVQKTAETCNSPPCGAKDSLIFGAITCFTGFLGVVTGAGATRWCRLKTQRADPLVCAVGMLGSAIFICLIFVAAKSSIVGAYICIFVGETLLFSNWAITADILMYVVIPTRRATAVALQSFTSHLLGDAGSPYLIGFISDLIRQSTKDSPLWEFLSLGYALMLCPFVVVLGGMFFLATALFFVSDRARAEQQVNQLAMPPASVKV

| SMILES | cell-based FTY720-P transport assay, WT vs mutants [1] | cryo-EM structure (3.60 Å); affinity selection mass spectrometry; cell-based S1P [2] |
| --- | --- | --- |
| CCCCCCCCc1ccc(CC[C@](N)(CO)COP(=O)(O)O)cc1 [FTY720-P] | substitutions also significantly decreased FTY720-P transport activity, which indicates a similar FTY720-P transport mechanism as S1P | – |
| CCCCCCCCCCCCC/C=C/[C@@H](O)[C@@H](N)COP(=O)(O)O [S1P, sphingosine-1-phosphate] | – | The affinity selection mass spectrometry results confirmed that endogenous S1P bound to Spns2fusion |
